The text below walks through data of patent US20250333404A1, “DEUTERATED COMPOUNDS” (Neurocrine Biosciences, Inc., priority 2022, published 2025).

The target of the experiment is NaV1.6 (Homo sapiens (Human), UniProt Q9UQD0). Kind of experiment: Sodium influx assay (ANG2 dye), NaV1.6. The class given is cell-based. The following applies: Trex HEK293 cells, human α-subunit + β1-subunit; inactivated state; read-out: Flux NaV1.6 IC50.
Sequence of NaV1.6 (Q9UQD0 whole entry): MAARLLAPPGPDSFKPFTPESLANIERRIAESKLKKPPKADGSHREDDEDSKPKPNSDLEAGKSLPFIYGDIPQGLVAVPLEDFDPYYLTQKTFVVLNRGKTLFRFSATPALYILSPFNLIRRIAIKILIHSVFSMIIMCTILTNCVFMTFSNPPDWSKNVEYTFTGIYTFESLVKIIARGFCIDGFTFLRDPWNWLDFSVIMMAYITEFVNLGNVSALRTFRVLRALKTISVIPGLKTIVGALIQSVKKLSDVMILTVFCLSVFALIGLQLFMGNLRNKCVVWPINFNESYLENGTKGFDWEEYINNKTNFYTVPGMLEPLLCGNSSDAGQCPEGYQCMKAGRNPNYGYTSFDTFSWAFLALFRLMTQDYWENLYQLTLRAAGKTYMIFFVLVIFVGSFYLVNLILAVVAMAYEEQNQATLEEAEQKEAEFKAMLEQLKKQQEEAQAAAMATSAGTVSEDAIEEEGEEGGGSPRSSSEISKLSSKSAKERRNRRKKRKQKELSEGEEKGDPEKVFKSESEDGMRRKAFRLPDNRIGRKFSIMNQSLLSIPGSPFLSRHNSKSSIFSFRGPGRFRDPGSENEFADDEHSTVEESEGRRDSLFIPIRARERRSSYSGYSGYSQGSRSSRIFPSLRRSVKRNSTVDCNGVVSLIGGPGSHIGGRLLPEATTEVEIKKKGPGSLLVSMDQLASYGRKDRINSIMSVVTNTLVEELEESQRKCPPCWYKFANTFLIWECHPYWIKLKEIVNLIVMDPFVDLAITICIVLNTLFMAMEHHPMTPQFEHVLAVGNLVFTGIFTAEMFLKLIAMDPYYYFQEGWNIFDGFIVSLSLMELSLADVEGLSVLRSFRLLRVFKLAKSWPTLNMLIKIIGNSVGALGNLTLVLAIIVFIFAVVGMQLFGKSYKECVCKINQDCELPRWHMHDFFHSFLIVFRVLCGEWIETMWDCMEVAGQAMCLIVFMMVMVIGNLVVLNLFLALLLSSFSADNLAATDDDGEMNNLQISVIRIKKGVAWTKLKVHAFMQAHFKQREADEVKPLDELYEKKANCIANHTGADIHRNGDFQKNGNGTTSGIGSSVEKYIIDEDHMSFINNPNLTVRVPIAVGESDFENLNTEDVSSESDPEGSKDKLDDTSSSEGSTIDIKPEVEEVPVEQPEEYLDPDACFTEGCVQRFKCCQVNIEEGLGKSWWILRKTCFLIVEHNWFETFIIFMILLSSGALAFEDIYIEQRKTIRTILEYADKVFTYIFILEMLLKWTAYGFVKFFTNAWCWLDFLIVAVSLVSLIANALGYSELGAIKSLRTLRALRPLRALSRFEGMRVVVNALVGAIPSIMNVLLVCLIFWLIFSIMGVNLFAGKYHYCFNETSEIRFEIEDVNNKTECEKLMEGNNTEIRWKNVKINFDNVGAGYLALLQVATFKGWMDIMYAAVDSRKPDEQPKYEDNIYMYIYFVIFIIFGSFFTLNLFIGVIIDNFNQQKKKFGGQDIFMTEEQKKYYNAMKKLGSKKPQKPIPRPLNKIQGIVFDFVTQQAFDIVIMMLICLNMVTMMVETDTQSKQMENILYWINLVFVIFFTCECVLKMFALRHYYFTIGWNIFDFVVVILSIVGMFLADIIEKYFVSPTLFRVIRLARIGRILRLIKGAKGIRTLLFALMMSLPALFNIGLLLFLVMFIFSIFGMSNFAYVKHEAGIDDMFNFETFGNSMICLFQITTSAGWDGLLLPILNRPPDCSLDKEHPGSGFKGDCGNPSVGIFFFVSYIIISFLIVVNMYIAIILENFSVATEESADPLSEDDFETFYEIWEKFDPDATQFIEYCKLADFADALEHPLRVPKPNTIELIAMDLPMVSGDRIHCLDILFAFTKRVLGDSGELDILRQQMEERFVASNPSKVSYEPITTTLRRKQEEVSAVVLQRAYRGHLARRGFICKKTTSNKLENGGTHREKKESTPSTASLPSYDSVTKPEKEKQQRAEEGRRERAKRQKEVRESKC
Sequence of NaV1.6 (Q07699 19-218 partner): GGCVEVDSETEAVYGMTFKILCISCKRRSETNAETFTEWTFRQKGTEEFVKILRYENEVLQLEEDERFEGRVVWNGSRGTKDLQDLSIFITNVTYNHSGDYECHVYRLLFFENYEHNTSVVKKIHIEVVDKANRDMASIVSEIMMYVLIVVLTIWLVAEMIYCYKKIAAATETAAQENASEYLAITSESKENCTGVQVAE

In the case of `Cc1cc(S(=O)(=O)Nc2cscn2)c(F)cc1N(C)[C@H]1CCN(Cc2ccccc2)C1` [Compound 1, (S)-4-((1-benzylpyrrolidin-3-yl)(methyl)amino)-2-fluoro-5-methyl-N-(thiazol-4-yl)benzenesulfonamide], the IC50 worked out at 0.272 µM.
